Data on one molecule can be found in PMC8119899, “A Single Mutation in the Outer Lipid-Facing Helix of a Pentameric Ligand-Gated Ion Channel Affects Channel Function Through a Radially-Propagating Mechanism” (Frontiers in Molecular Biosciences, 2021).

Positions count from the first letter of the chain named.

What all share (type): cell-based
For one assay, the target named is T1, 5-HT3A receptor K255A (Mus musculus, UniProt P23979, K282A).
T1 sequence (P23979 24-489 K282A): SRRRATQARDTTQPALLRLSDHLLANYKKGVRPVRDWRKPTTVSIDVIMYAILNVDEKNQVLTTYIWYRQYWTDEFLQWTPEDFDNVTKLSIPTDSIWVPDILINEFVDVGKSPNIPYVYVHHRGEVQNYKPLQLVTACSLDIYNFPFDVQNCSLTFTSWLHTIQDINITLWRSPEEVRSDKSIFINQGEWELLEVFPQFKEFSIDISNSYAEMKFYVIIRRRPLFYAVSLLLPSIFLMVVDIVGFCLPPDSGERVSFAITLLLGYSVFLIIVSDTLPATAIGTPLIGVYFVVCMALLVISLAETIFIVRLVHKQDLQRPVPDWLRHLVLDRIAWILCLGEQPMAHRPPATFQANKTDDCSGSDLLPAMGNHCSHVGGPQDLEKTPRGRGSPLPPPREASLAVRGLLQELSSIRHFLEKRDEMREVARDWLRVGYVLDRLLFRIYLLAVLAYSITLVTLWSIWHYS
The assay can be described thus: Two-electrode voltage clamp, 5-HT response, K255A receptor in Xenopus oocytes. The following applies: mean and SEM, n ≥ 3. The protocol: (§1) The mouse 5-HT3A cDNA (Q6J1J7) in pcDNA3.1 (for HEK cell transfection) or pGEMHE (for RNA production) was modified by QuikChange site-directed mutagenesis (Agilent Technologies) to create point mutants (verified by sequencing).
Xenopus laevis oocytes from EcoCyte Biosciences (Austin Texas) were injected with 100 pg cRNA (generated with the ThermoFisher mMESSAGE mMACHINE T7 transcription kit) and left in injection media [88 mM NaCl, 2.4 mM NaHCO3, 1 mM KCl, 0.82 mM MgSO4 ·7H20, 5 mM Tris-HCl, 0.33 mM Ca(NO3)2·4H2O, 0.41 mM CaCl2·2H2O, 2.51 mM sodium pyruvate, 0.12 mg/ml theophylline, 0.05 mg/ml gentamicin, pH 7.5] at 16 °C for 24 h. […] The holding potential was −60 mV, using glass microelectrodes with a resistance of approximately 1 MΩ backfilled with 3M KCl.
(Two-electrode voltage clamp holds a large cell at a set potential and records current.)

The target of another assay is T2, WT 5-HT3A receptor (Mus musculus, UniProt P23979).
T2 construct: expressed in transfected cells; host or cells: HEK293
T2 sequence (P23979 24-483 isoform P23979-2 limits assumed): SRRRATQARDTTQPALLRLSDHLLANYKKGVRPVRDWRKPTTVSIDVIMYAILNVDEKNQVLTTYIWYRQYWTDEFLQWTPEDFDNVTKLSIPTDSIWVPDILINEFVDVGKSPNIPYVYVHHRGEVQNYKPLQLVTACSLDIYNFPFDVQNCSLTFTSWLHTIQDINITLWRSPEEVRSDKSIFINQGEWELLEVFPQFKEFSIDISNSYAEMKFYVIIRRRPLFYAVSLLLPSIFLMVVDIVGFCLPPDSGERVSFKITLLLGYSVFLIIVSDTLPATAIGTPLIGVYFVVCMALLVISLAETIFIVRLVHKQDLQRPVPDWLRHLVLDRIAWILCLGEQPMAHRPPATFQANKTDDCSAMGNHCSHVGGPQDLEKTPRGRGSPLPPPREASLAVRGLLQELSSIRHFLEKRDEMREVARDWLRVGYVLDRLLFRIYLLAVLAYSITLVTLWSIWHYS
The assay is described as follows: FlexStation membrane potential dye, 5-HT response, WT receptor in HEK293 cells. The following applies: mean and SEM, n ≥ 3. The method, then: as §1
(§2) Human embryonic kidney (HEK) 293 cells were maintained at 37 °C at 5% CO2 in a humidified atmosphere, in Dulbecco's Modified Eagle's Medium/Nutrient Mix F12 (1:1) (Invitrogen, Paisley, UK) with GlutaMAX^TM and 10% fetal bovine serum (GE Healthcare) (DMEM/FBS) and passaged when confluent.
(§3) As described previously (Price and Lummis, [2005]) cells were incubated for 45 min with fluorescent membrane potential-sensitive dye (Membrane Potential Blue kit, Molecular Devices) diluted in Flex buffer (10 mM HEPES, 115 mM NaCl, 1 mM KCl, 1 mM CaCl2, 1 mM MgCl2, and 10 mM glucose, pH 7.4), and subsequently assayed at room temperature for 180 s, with readings every 2 s. […] (log of the concentration of ligand), a is the minimum response, b is the maximum response, and nH is the Hill slope.

For a further assay, the target named is T3, 5-HT3A receptor K255L (Mus musculus, UniProt P23979, K282L).
T3 construct: expressed in transfected cells
T3 sequence (P23979 24-489 K282L): T1 sequence (P23979 24-489 K282A) with A259L
The assay is described as follows: FlexStation membrane potential dye, 5-HT response, K255L receptor in HEK293 cells. Also on record: key: Mutants that did not respond in the functional assay are marked as non functional (NF). The method, then: as §1
Human embryonic kidney (HEK) 293 cells were maintained at 37 °C at 5% CO2 in a humidified atmosphere, in Dulbecco's Modified Eagle's Medium/Nutrient Mix F12 (1:1) (Invitrogen, Paisley, UK) with GlutaMAX^TM and 10% fetal bovine serum (GE Healthcare) (DMEM/FBS) and passaged when confluent. Five micrograms of WT or mutant 5-HT3A DNA and 30 μl polyethyleneamine (Polysciences) incubated for 10 min in 1 mL DMEM was added to 60% confluent HEK293 cells for transfection, and cells grown for 2 days before assays.
as §3

Another assay concerns the target T4, 5-HT3A receptor F242A (Mus musculus, UniProt P23979, F269A).
T4 construct: expressed in transfected cells; host or cells: HEK293
T4 sequence (P23979 24-489 F269A): T1 sequence (P23979 24-489 K282A) with F246A, A259K
The assay is described as follows: FlexStation membrane potential dye, 5-HT response, F242A receptor in HEK293 cells. The following applies: mean and SEM, n ≥ 3. The protocol: as §1, §2, §3

As to `NCCc1c[nH]c2ccc(O)cc12` [5-HT], the results for the nH at 5-HT3A receptor K255A and on 5-HT3A receptor F242A were 1.9 ± 0.5 and 3.8 ± 0.8, respectively. Further, the “nH (Hill slope)” value on WT 5-HT3A receptor turned out to be 3.7 ± 0.3. The pEC50 entry on 5-HT3A receptor K255L was “NF”.
